What was measured:
Type in all cases: in vivo
Myzus persicae = assay: Test of control effect on Myzus persicae (foliar application, potted Chinese cabbage); details: 144 h, foliar application to potted Chinese cabbage plants, 6 days after the foliar application, read-out: control effect (control rate), activity level
Description: Test of Control Effect on Myzus persicae Chinese cabbage plants were planted in plastic pots (diameter: 8 cm, height: 8 cm), green peach aphids (Myzus persicae) were propagated on the plants, and the number of surviving green peach aphids in each pot was counted. The condensed heterocyclic compounds represented by the general formula (1) of the present invention or salts thereof were separately dispersed in water and diluted to 500 ppm, and the agrochemical dispersions were applied to the foliage of the potted Chinese cabbage plants. After the plants were air-dried, the pots were kept in a greenhouse. At 6 days after the foliar application, the number of surviving green peach aphids on the Chinese cabbage plant in each pot was counted, the control rate was calculated according to the formula shown below, and the control effect was evaluated according to the criterion shown below. Control rate=100−{(T×Ca)/(Ta×C)}×100 Ta: the number of survivors before the foliar application in a treatment plot T: the number of survivors after the foliar application in a treatment plot Ca: the number of survivors before the foliar application in a non-treatment plot C: the number of survivors after the foliar application in a non-treatment plot Criterion A: the control rate is 100%. B: the control rate is 90 to 99%. C: the control rate is 80 to 89%. D: the control rate is 50 to 79%.

Laodelphax striatella = assay: Test of insecticidal effect on Laodelphax striatella (rice seedling dip); details: Laodelphax striatellus, 192 h, rice seedlings dipped for 30 seconds, 3rd-instar larvae, 8 days after the inoculation, read-out: insecticidal effect (corrected mortality rate), activity level
Description: Test of Insecticidal Effect on Laodelphax striatella
The condensed heterocyclic compounds represented by the general formula (1) of the present invention or salts thereof were separately dispersed in water and diluted to 500 ppm, and rice plant seedlings (variety: Nihonbare) were dipped in the agrochemical dispersions for 30 seconds. After air-dried, each seedling was put into a separate glass test tube and inoculated with ten 3rd-instar larvae of Laodelphax striatella, and then the glass test tubes were capped with cotton plugs. At 8 days after the inoculation, the numbers of surviving larvae and dead larvae were counted, the corrected mortality rate was calculated according to the formula shown below, and the insecticidal effect was evaluated according to the criterion of Test Example 1. Corrected mortality rate (%)=100×(Survival rate in a non-treatment plot−Survival rate in a treatment plot)/Survival rate in a non-treatment plot

Plutella xylostella = assay: Test of insecticidal effect on Plutella xylostella (dip of Chinese cabbage seedlings with laid eggs); details: 144 h, seedlings with laid eggs dipped for about 30 seconds, 25° C., 6 days after the dip treatment, read-out: insecticidal effect (corrected mortality rate), activity level
Description: Test of Insecticidal Effect on Plutella xylostella
Adults of Plutella xylostella were released onto Chinese cabbage seedlings and allowed to lay eggs thereon. At 2 days after the release of the adults, the Chinese cabbage seedlings with laid eggs were dipped for about 30 seconds in agrochemical dispersions diluted to 500 ppm, each of which contained a different condensed heterocyclic compound represented by the general formula (1) of the present invention as an active ingredient. The seedlings were air-dried and then kept in a thermostatic chamber at 25° C. At 6 days after the dip treatment, the number of hatched larvae per plot was counted, the mortality rate was calculated according to the formula shown below, and the insecticidal effect was evaluated according to the criterion of Test Example 1. This test was conducted in triplicate using 10 adults of Plutella xylostella per plot. Corrected mortality rate (%)=100×(Number of hatched larvae in a non-treatment plot−Number of hatched larvae in a treatment plot)/Number of hatched larvae in a non-treatment plot

Structure (SMILES)	pest or weed control at 500 ppm (Myzus persicae) [%]	mortality at 500 ppm (Laodelphax striatella) [%]	mortality at 500 ppm (Plutella xylostella) [%]
CCS(=O)(=O)c1cc(C2CC2)cnc1-c1nc2cc(C(F)(F)F)cnc2n1C [Compound 1-15]	100	100	100
CCSc1cc(C2CC2)cnc1-c1nc2cc(C(F)(F)F)cnc2o1 [Compound 3-13, 2-(3-ethylthio-5-cyclopropylpyridin-2-yl)-5-trifluoromethyl-oxazolo[5,4-b]pyridine]	100	100	100
CCS(=O)(=O)c1cc(C2CC2)cnc1-c1nc2cc(C(F)(F)F)cnc2o1 [Compound 3-15, 2-(3-ethylsulfonyl-5-cyclopropylpyridin-2-yl)-5-trifluoromethyl-oxazolo[5,4-b]pyridine]	100	100	100
CCSc1cc(C2CC2)cnc1-c1nc2cc(C(F)(F)F)cnc2s1 [Compound 5-13]	100	100	100
CCS(=O)(=O)c1cc(C2CC2)cnc1-c1nc2cc(C(F)(F)F)cnc2s1 [Compound 5-15]	100	100	100
CCSc1cc(C2CC2)cnc1-c1nc2cc(C(F)(F)F)ccc2n1C [Compound 7-13, 2-(3-ethylthio-5-cyclopropylpyridin-2-yl)-1-methyl-5-trifluoromethyl-1H-benzimidazole]	100	100	100
CC[S+]([O-])c1cc(C2CC2)cnc1-c1nc2cc(C(F)(F)F)ccc2n1C (centres unmarked) [Compound 7-14, 2-(3-ethylsulfinyl-5-cyclopropylpyridin-2-yl)-1-methyl-5-trifluoromethyl-1H-benzimidazole]	100	100	100
CCS(=O)(=O)c1cc(C2CC2)cnc1-c1nc2cc(C(F)(F)F)ccc2n1C [Compound 7-15, 2-(3-ethylsulfonyl-5-cyclopropylpyridin-2-yl)-1-methyl-5-trifluoromethyl-1H-benzimidazole]	100	100	100
CCSc1cc(C2CC2)cnc1-c1nc2cc(C(F)(F)F)ccc2s1 [Compound 9-10, 2-(3-ethylthio-5-cyclopropylpyridin-2-yl)-5-trifluoromethyl-benzothiazole]	100	100	100
CCS(=O)(=O)c1cc(C2CC2)cnc1-c1nc2cc(C(F)(F)F)ccc2s1 [Compound 9-12, 2-(3-ethylsulfonyl-5-cyclopropylpyridin-2-yl)-5-trifluoromethyl-benzothiazole]	100	100	100
CCS(=O)(=O)c1cc(C2(C(=O)O)CC2)cnc1-c1nc2cc(C(F)(F)F)cnc2n1C [Compound 11-1]	100	100	100
CCS(=O)(=O)c1cc(C2(C(=O)OC)CC2)cnc1-c1nc2cc(C(F)(F)F)cnc2n1C [Compound 11-2]	100	100	100
CCS(=O)(=O)c1cc(C2(C(N)=O)CC2)cnc1-c1nc2cc(C(F)(F)F)cnc2n1C [Compound 11-6]	100	100	100
CCS(=O)(=O)c1cc(C2(C#N)CC2)cnc1-c1nc2cc(C(F)(F)F)cnc2n1C [Compound 11-13]	100	100	100
CCS(=O)(=O)c1cc(C2CC2C(=O)OC)cnc1-c1nc2cc(C(F)(F)F)cnc2n1C (centres unmarked) [Compound 11-82]	100	100	–

— patent publication US10266552B2, “Condensed heterocyclic compound having cycloalkylpyridyl group or salt thereof, agricultural and horticultural insecticide comprising the compound, and method for using the insecticide” (Nihon Nohyaku Co., Ltd., priority 2015, dated 2019)
